Like-named read-outs stand apart in the source and are kept apart here.
Tests used:
[1] = tested on: DU-145 human prostate cancer cells; assay: Antiproliferative assay (WST-1, 96 h), DU-145; type: cell-based; settings: for GI50: Homo sapiens, DU-145 cells, 96 h, WST-1, mean of three determinations; for fold more active than the 3′-methoxy derivatives: vs 3′-methoxy derivatives 16 b and 17 b
Protocol: (§1) Cell lines: DU-145 (brain metastasis carcinoma of the prostate) and MDA MB-231 (metastatic pleural effusion of breast adenocarcinoma) established human cell lines were obtained from ATCC Global Bioresource Center. Cells were maintained in a 5 % CO2 humidified atmosphere at 37 °C in RPMI-1640 medium, supplemented with 10 % fetal bovine serum, penicillin, (100 U mL^−1), and streptomycin (0.1 mg mL^−1). The effect of drugs on tubule formation was assessed using an angiogenesis kit (TCS-Cellworks).
(§2) Antiproliferative assays: DU-145 and MDA MB-231 cells were seeded into 96-well microtitre plates (5000 cells per well) and treated with compound (10^−9–10^−4 M) or with vehicle control. At 96 h post-treatment, live cell counts were determined by WST-1 cell proliferation assay (Roche, Penzberg, Germany), as per the manufacturer’s instructions. Viability results were expressed as a percentage of mean control values resulting in the calculation of the 50 % growth inhibition (GI50). All experiments were performed in triplicate.

[2] = tested on: MDA MB-231 human breast cancer cells; assay: Antiproliferative assay (WST-1, 96 h), MDA MB-231; type: cell-based; settings: MDA MB-231 cells, WST-1, mean of three determinations
Protocol: as §1, §2

Bovine brain tubulin [3] = molecular target: T1, Bovine brain tubulin (Bos taurus, UniProt P81947+Q6B856); assay: Inhibition of [3H]colchicine binding to tubulin; settings: mean ±SD; for inhibition at 5 µM: 5 μM inhibitor, 1.0 μM tubulin, 5.0 μM [3H]colchicine, read-out: CB [% inhib.] 5 μM inhibitor; for inhibition at 1 µM: 1 μM inhibitor, read-out: CB [% inhib.] 1 μM inhibitor
T1 construct: from tissue; host or cells: bovine brain
Protocol: (§3) Tubulin assays: Bovine brain tubulin, prepared as described previously,[16] was used in studies presented here. Assembly IC50 values were determined as described in detail elsewhere.[17] Briefly, 1.0 mg mL^−1 (10 μM) tubulin was pre-incubated without GTP with varying compound concentrations for 15 min at 30 °C. Reaction mixtures were placed on ice, and GTP (final concentration, 0.4 mM) was added. The reaction mixtures were transferred to cuvettes, held at 0 °C in a recording spectrophotometer. Baselines were established at 0 °C, and increase in turbidity was followed for 20 min following a rapid (<30 s) jump to 30 °C. Compound concentrations required to decrease the turbidity increase by 50 % were determined. The method for measuring inhibition of the binding of [^3H]colchicine to tubulin was described in detail previously.[18] Reaction mixtures contained 0.1 mg mL^−1 (1.0 μM) tubulin, 5.0 μM [^3H]colchicine, and potential inhibitor at 5.0 μM. […] A minimum of two experiments were performed with each compound.

Bovine brain tubulin [4] = assay: Tubulin polymerisation (assembly) assay; type: biochemical; settings: 10 μM tubulin, mean ±SD of at least two determinations; read-out: TP IC50 (tubulin polymerisation)
Protocol: as §3

[5] = tested on: MDA MB-231 human breast cancer cells; parameters: method as in PMID 24124095; settings: MDA MB-231 cells; data taken from the literature ref 8; cited from earlier work
[6] = tested on: DU-145 human prostate cancer cells; parameters: method as in PMID 24124095; settings: DU-145 cells; data taken from the literature ref 8; cited from earlier work
Bovine brain tubulin [7] = molecular target: T1, Bovine brain tubulin; parameters: method as in PMID 20225862; settings: data taken from the literature ref 3; cited from earlier work
Bovine brain tubulin [8] = tested on: Bovine brain tubulin; parameters: method as in PMID 20225862; settings: data taken from the literature ref 3; read-out: TP IC50 (tubulin polymerisation); cited from earlier work
carbonic anhydrase = assay: Carbonic anhydrase inhibition; type: biochemical
[9] = tested on: HUVECs within a matrix of human diploid fibroblasts of dermal origin; assay: In vitro model of angiogenesis (tubule formation, co-culture); type: cell-based; settings: 25 nM and 50 nM, VEGF-stimulated, quantified after 11 days
Protocol: Compounds 16 f and 17 f were also assayed for anti-angiogenic activity in an in vitro model of angiogenesis, wherein endothelial cells co-cultured in a matrix of human dermal fibroblasts are used to assess anti-angiogenic potential (Figure 2). When stimulated with VEGF the endothelial cells proliferate and migrate through the matrix to form tubule-like structures. The extent of tubule formation was quantified after 11 days as described elsewhere.[14] […] Quantification carried out by calculating total pixel length reflects the lack of tubule formation.
Cell lines: DU-145 (brain metastasis carcinoma of the prostate) and MDA MB-231 (metastatic pleural effusion of breast adenocarcinoma) established human cell lines were obtained from ATCC Global Bioresource Center. […] The effect of drugs on tubule formation was assessed using an angiogenesis kit (TCS-Cellworks).
Anti-angiogenic assays: HUVECs were cultured in a 24-well plate within a matrix of human diploid fibroblasts of dermal origin in optimised medium supplied by the company. […] The extent of tubule formation was then quantified, either manually by eye or using free software available through the National Institutes of Health website (NIH image [Mac version] from http://rsb.info.nih.gov/nih-image/download.html). […] After correcting for background the software counted the number of pixels representing tubules. […]

[10] = parameters: method as in PMID 22247790, PMID 24124095; settings: THIQ series, cell line not printed ref 7, 8; cited from earlier work

T1 sequence (Q6B856 whole entry): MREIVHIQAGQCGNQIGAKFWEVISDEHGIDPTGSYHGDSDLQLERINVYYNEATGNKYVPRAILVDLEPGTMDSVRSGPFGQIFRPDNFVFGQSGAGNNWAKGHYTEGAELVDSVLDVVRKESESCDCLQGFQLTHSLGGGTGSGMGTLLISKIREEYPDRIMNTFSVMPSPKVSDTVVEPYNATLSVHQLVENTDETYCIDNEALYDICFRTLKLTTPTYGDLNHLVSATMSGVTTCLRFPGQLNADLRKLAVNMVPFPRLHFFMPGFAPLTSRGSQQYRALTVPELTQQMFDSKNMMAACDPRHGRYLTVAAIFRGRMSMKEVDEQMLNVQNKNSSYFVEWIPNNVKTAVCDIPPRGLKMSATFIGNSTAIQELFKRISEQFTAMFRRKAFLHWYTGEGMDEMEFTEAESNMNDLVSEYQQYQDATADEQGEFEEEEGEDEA
T1 sequence (P81947 whole entry): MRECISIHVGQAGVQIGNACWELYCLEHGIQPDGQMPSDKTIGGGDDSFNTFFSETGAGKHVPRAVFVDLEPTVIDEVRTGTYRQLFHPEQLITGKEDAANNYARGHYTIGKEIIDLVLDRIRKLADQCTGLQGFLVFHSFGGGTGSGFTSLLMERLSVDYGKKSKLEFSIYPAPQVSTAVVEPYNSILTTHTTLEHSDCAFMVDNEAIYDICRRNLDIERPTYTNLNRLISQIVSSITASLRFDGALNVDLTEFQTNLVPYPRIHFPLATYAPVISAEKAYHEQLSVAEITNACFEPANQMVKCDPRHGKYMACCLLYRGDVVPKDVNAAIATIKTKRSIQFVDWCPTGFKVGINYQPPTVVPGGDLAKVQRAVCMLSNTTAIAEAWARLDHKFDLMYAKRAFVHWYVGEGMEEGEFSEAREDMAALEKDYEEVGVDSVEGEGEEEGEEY

SMILES	melting point	GI50 [1]	GI50 [2]	also measured
COc1cc2c(cc1O)CCN(S(=O)(=O)c1cccc(Cl)c1)C2=O [11 d, 6-Hydroxy-7-methoxy-2-((3-chlorophenyl)sulfonyl)-3,4-dihydroisoquinolin-1(2H)-one]	178 to 181 °C	> 100 µM	> 100 µM	
COc1cc2c(cc1OS(N)(=O)=O)CCN(C(=O)c1cc(OC)c(OC)c(OC)c1)C2=O [17 g, 7-Methoxy-2-(3,4,5-trimethoxybenzoyl)-6-sulfamoyloxy-3,4-dihydroisoquinolin-1(2H)-one]		0.166 µM	0.275 µM	inhibition at 5 µM (Bovine brain tubulin [3]): 85 ± 2%; IC50 (Bovine brain tubulin [4]): 1.2 ± 0.03 µM
COc1cc2c(cc1O)CCN(C(=O)c1cc(OC)c(OC)c(OC)c1)C2 [18 c]				GI50 [5]: 0.733 µM; GI50 [6]: 0.921 µM
COc1cc2c(cc1OS(N)(=O)=O)CC[C@@H]1[C@@H]2CC[C@]2(C)[C@@H](OS(N)(=O)=O)CC[C@@H]12 [1 a]				CB [% inhib.] 5 μM inhibitor (Bovine brain tubulin [7]): 28±3%; IC50 (Bovine brain tubulin [8]): 2.2 ± 0.3 µM
COc1cc2c(cc1OS(N)(=O)=O)CCN(C(=O)c1cc(OC)c(OC)c(OC)c1)C2 [19 c]				GI50 [5]: 1.72 µM; GI50 [6]: 1.81 µM
COc1cc2c(cc1OS(N)(=O)=O)CC[C@@H]1[C@@H]2CC[C@]2(C)[C@@H](CC#N)CC[C@@H]12 [1 b]				CB [% inhib.] 5 μM inhibitor (Bovine brain tubulin [7]): 78±0.9%; IC50 (Bovine brain tubulin [8]): 1.3 ± 0.08 µM
COC(=O)c1ccccc1S(=O)(=O)N1CCc2cc(O)c(OC)cc2C1=O [11 e, Methyl 2-((6-hydroxy-7-methoxy-1-oxo-3,4-dihydroisoquinolin-2(1H)-yl)sulfonyl)benzoate]	236 to 239 °C	> 100 µM	> 100 µM	
CCc1cc2c(cc1OS(N)(=O)=O)CC[C@@H]1[C@@H]2CC[C@]2(C)[C@@H](OS(N)(=O)=O)CC[C@@H]12 [1 c]				CB [% inhib.] 5 μM inhibitor (Bovine brain tubulin [7]): 45±4%; IC50 (Bovine brain tubulin [8]): 1.3 ± 0.01 µM
COc1cc2c(cc1O)CCN(C(=O)c1ccc(OC)c(OC)c1)C2=O [16 e, 6-Hydroxy-2-(3,4-dimethoxybenzoyl)-7-methoxy-3,4-dihydroisoquinolin-1(2H)-one]	199 to 200 °C	2.39 µM	1.6 µM	
COC(=O)c1ccccc1S(=O)(=O)N1CCc2cc(OS(N)(=O)=O)c(OC)cc2C1=O [12 e, Methyl 2-((7-methoxy-1-oxo-6-(sulfamoyloxy)-3,4-dihydroisoquinolin-2(1H)-yl)sulfonyl)benzoate]	181 to 186 °C	> 100 µM	13 µM	
COc1cccc(CN2CCc3cc(OS(N)(=O)=O)c(OC)cc3C2=O)c1 [9 b, 7-Methoxy-2-(3-methoxybenzyl)-6-sulfamoyloxy-3,4-dihydroisoquinolin-1(2H)-one]	139 to 140 °C	> 100 µM		
COc1cc(OC)cc(C(=O)N2CCc3cc(OS(N)(=O)=O)c(OC)cc3C2=O)c1 [17 f, 2-(3,5-Dimethoxybenzoyl)-7-methoxy-6-sulfamoyloxy-3,4-dihydroisoquinolin-1(2H)-one]		0.179 µM	0.118 µM	inhibition at 1 µM (Bovine brain tubulin [3]): 65 ± 3%; inhibition at 5 µM (Bovine brain tubulin [3]): 89 ± 0.1%; IC50 (carbonic anhydrase): 0.89 µM; IC50 (Bovine brain tubulin [4]): 1.3 ± 0.01 µM; fold more active than the 3′-methoxy derivatives [1]: > 10 fold; formation of tubule-like structures [9]: almost completely inhibits
COc1cc2c(cc1OS(N)(=O)=O)CCN(S(=O)(=O)c1cccc(Cl)c1)C2=O [12 d, 2-((3-Chlorophenyl)sulfonyl)-7-methoxy-6-(sulfamoyloxy)-3,4-dihydroisoquinolin-1(2H)-one]	170 to 173 °C	> 100 µM	> 100 µM	
COc1cc2c(cc1OS(N)(=O)=O)CCN(S(=O)(=O)c1ccccc1OC)C2=O [12 a, 7-Methoxy-2-((2-methoxyphenyl)sulfonyl)-6-(sulfamoyloxy)-3,4-dihydroisoquinolin-1(2H)-one]	195 to 197 °C	> 100 µM	> 100 µM	
COc1ccc(S(=O)(=O)N2CCc3cc(O)c(OC)cc3C2=O)cc1 [11 c, 6-Hydroxy-7-methoxy-2-((4-methoxyphenyl)sulfonyl)-3,4-dihydroisoquinolin-1(2H)-one]	202 to 204 °C	> 100 µM	> 100 µM	
COc1cc(OC)cc(C(=O)N2CCc3cc(O)c(OC)cc3C2=O)c1 [16 f, 6-Hydroxy-2-(3,5-dimethoxybenzoyl)-7-methoxy-3,4-dihydroisoquinolin-1(2H)-one]		0.215 µM	0.161 µM	inhibition at 5 µM (Bovine brain tubulin [3]): 81 ± 0.7%; IC50 (Bovine brain tubulin [4]): 1.5 ± 0.1 µM; fold more active than the 3′-methoxy derivatives [1]: > 10 fold; formation of tubule-like structures [9]: almost completely inhibits
COc1ccc(/C=C\c2cc(OC)c(OC)c(OC)c2)cc1O [CA-4, combretastatin A-4, reference compound]				inhibition at 1 µM (Bovine brain tubulin [3]): 90 ± 0.2%
COc1cccc(S(=O)(=O)N2CCc3cc(OS(N)(=O)=O)c(OC)cc3C2=O)c1 [12 b, 7-Methoxy-2-((3-methoxyphenyl)sulfonyl)-6-(sulfamoyloxy)-3,4-dihydroisoquinolin-1(2H)-one]	164 to 166 °C	> 100 µM	> 100 µM	
COc1cccc(CN2CCc3cc(OS(N)(=O)=O)c(OC)cc3C2)c1 [compound 2]				GI50 [10]: 2.1 µM
COc1cc2c(cc1OS(N)(=O)=O)CCN(C(=O)c1cccc(C#N)c1)C2=O [17 c, 2-(3-Cyanobenzoyl)-7-methoxy-6-sulfamoyloxy-3,4-dihydroisoquinolin-1(2H)-one]	171 to 172 °C	25 µM	> 100 µM	

Source: PMC4114533, “Synthesis, Anti-tubulin and Antiproliferative SAR of Steroidomimetic Dihydroisoquinolinones” (Chemmedchem, 2014)
